Drawing on patent publication US12384787B2, “Fused heterocyclic compounds and their use as pest control agents” (PI INDUSTRIES LTD., priority 2019, dated 2025), this text covers mortality for 28 molecules.

This test relates to Plutella xylostella. The test is described as follows: Plutella xylostella leaf dip method (cabbage leaves). To be noted: foliar, second instar larvae, 72 h after release, dead and moribund combined, compared to untreated control, read-out: Percent mortality. Type of test: in vivo. As to the method:
The leaf dip method was used for testing, wherein the required quantity of the compounds were weighed and dissolved in a surfactant solution, kept on a Vortex at 2000 rpm with zirconia beads for 90 min for proper mixing and then diluted with 0.01% Triton-X solution to the desired test concentration. Cabbage leaves were dipped in the solution for 10 seconds, shade dried for 20 min and then transferred to bioassay trays. A single second instar larva was released into each bioassay tray cell and the tray was covered with a lid. The bio-assay trays were kept under laboratory conditions at a temperature of 25° C. and relative humidity of 70%. Observations on dead, moribund and living larvae were recorded at 72 h after the release. Percent mortality was calculated by combining dead and moribund larvae and comparing the result to the one of the untreated control.
`CCS(=O)(=O)c1cc2cc(C(F)(F)F)ccn2c1-c1nc2cc(C(F)(F)F)cnc2n1C` [Compound 5, 2-(2-(Ethylsulfonyl)-7-(trifluoromethyl)indolizin-3-yl)-3-methyl-6-(trifluoromethyl)-3H-imidazo[4,5-b]pyridine]: the mortality at 300 ppm is greater than 70%.
As for `CCS(=O)(=O)c1cc2c(-c3cc(Cl)cc(Cl)c3)cccn2c1-c1nc2cc(C(F)(F)F)cnc2n1C` [Compound 6, 2-(8-(3,5-Dichlorophenyl)-2-(ethylsulfonyl)indolizin-3-yl)-3-methyl-6-(trifluoromethyl)-3H-imidazo[4,5-b]pyridine], the mortality at 300 ppm was greater than 70%.
In the case of `CCS(=O)(=O)c1nn2c(C)cc(C)nc2c1-c1nc2cc(C(F)(F)F)ncc2n1C` [Compound 12, 2-(2-(Ethylsulfonyl)-5,7-dimethylpyrazolo[1,5-a]pyrimidin-3-yl)-3-methyl-6-(trifluoromethyl)-3H-imidazo[4,5-c]pyridine], the mortality at 300 ppm is greater than 70%.
With `CCS(=O)(=O)c1nn2cccnc2c1-c1nc2cc(S(=O)(=O)C(F)(F)F)ccc2o1` [Compound 18, 2-(2-(Ethylsulfonyl)pyrazolo[1,5-a]pyrimidin-3-yl)-5-((trifluoromethyl)sulfonyl)benzo[d]oxazole], the mortality at 300 ppm is greater than 70%.
Take `CCSc1nn2c(-c3ccc(F)cc3)ccnc2c1-c1nc2cc(C(F)(F)F)ncc2n1C` [Compound 20, 2-(2-(Ethylthio)-7-(4-fluorophenyl)pyrazolo[1,5-a]pyrimidin-3-yl)-3-methyl-6-(trifluoromethyl)-3H-imidazo[4,5-c]pyridine]: the mortality at 300 ppm is greater than 70%.
Consider `CCSc1nn2c(-c3ccc(OC(F)(F)F)cc3)ccnc2c1-c1nc2cc(C(F)(F)F)cnc2n1C` [Compound 27, 2-(2-(Ethylthio)-7-(4-(trifluoromethoxy)phenyl)pyrazolo[1,5-a]pyrimidin-3-yl)-3-methyl-6-(trifluoromethyl)-3H-imidazo[4,5-b]pyridine], for which the mortality at 300 ppm was greater than 70%.
The result for `CCS(=O)(=O)c1nn2c(-c3ccc(OC(F)(F)F)cc3)ccnc2c1-c1nc2cc(C(F)(F)F)cnc2n1C` [Compound 29, 2-(2-(Ethylsulfonyl)-7-(4-(trifluoromethoxy)phenyl)pyrazolo[1,5-a]pyrimidin-3-yl)-3-methyl-6-(trifluoromethyl)-3H-imidazo[4,5-b]pyridine] reads greater than 70%; that for `CCS(=O)(=O)c1nn2c(-c3ccc(OC(F)(F)F)cc3)ccnc2c1-c1nc2cc(C(F)(F)F)ncc2n1C` [Compound 30, 2-(2-(Ethylsulfonyl)-7-(4-(trifluoromethoxy)phenyl)pyrazolo[1,5-a]pyrimidin-3-yl)-3-methyl-6-(trifluoromethyl)-3H-imidazo[4,5-c]pyridine], greater than 70%.
As for `CCS(=O)(=O)c1nn2c(-c3ccc(F)cc3)ccnc2c1-c1nc2cc(S(=O)(=O)C(F)(F)F)ccc2o1` [Compound 34, 2-(2-(Ethylsulfonyl)-7-(4-fluorophenyl)pyrazolo[1,5-a]pyrimidin-3-yl)-5-((trifluoromethyl)sulfonyl)benzo[d]oxazole], the mortality at 300 ppm was greater than 70%.
As for `CCSc1nn2c(-c3ccc(Cl)cc3)ccnc2c1-c1nc2cc(C(F)(F)F)ncc2n1C` [Compound 35, 2-(7-(4-Chlorophenyl)-2-(ethylthio)pyrazolo[1,5-a]pyrimidin-3-yl)-3-methyl-6-(trifluoromethyl)-3H-imidazo[4,5-c]pyridine], the mortality at 300 ppm is greater than 70%.
For `CCS(=O)(=O)c1nn2c(-c3ccc(Cl)cc3)ccnc2c1-c1nc2cc(S(=O)(=O)C(F)(F)F)ccc2o1` [Compound 40, 2-(7-(4-Chlorophenyl)-2-(ethylsulfonyl)pyrazolo[1,5-a]pyrimidin-3-yl)-5-((trifluoromethyl)sulfonyl)benzo[d]oxazole], the mortality at 300 ppm is greater than 70%.
`CCS(=O)(=O)c1nn2c(-c3cc(Cl)cc(Cl)c3)ccnc2c1-c1nc2cc(S(=O)(=O)C(F)(F)F)ccc2o1` [Compound 43, 2-(7-(3,5-Dichlorophenyl)-2-(ethylsulfonyl)pyrazolo[1,5-a]pyrimidin-3-yl)-5-((trifluoromethyl)sulfonyl)benzo[d]oxazole]: the mortality at 300 ppm is greater than 70%.
Take `CCS(=O)(=O)c1nn2ccc(-c3ccccc3)nc2c1-c1nc2cc(C(F)(F)F)ncc2n1C` [Compound 46, 2-(2-(Ethylsulfonyl)-5-phenylpyrazolo[1,5-a]pyrimidin-3-yl)-3-methyl-6-(trifluoromethyl)-3H-imidazo[4,5-d]pyridine]: the mortality at 300 ppm is greater than 70%.
The figure for `CCSc1nn2cc(Cl)cnc2c1-c1nc2cc(C(F)(F)F)cnc2n1C` [Compound 48, 2-(6-Chloro-2-(ethylthio)pyrazolo[1,5-a]pyrimidin-3-yl)-3-methyl-6-(trifluoromethyl)-3H-imidazo[4,5-b]pyridine] is greater than 70%.
Consider `CCS(=O)(=O)c1nn2ccc(-c3ccc(F)cc3)nc2c1-c1nc2cc(C(F)(F)F)cnc2n1C` [Compound 62, 2-(2-(Ethylsulfonyl)-5-(4-fluorophenyl)pyrazolo[1,5-a]pyrimidin-3-yl)-3-methyl-6-(trifluoromethyl)-3H-imidazo[4,5-b]pyridine], for which the mortality at 300 ppm is greater than 70%.
The figure for `CCS(=O)(=O)c1nn2cc(-c3ccccc3)cnc2c1-c1nc2cc(C(F)(F)F)ncc2n1C` [Compound 66, 2-(2-(Ethylsulfonyl)-6-phenylpyrazolo[1,5-a]pyrimidin-3-yl)-3-methyl-6-(trifluoromethyl)-3H-imidazo[4,5-c]pyridine] is greater than 70%; for `CCS(=O)(=O)c1nn2ccc(-c3cc(Cl)cc(Cl)c3)nc2c1-c1nc2cc(C(F)(F)F)cnc2n1C` [Compound 67, 2-(5-(3,5-Dichlorophenyl)-2-(ethylsulfonyl)pyrazolo[1,5-a]pyrimidin-3-yl)-3-methyl-6-(trifluoromethyl)-3H-imidazo[4,5-b]pyridine] it is greater than 70%; for `CCS(=O)(=O)c1nn2ccc(-c3cc(Cl)cc(Cl)c3)nc2c1-c1nc2cc(C(F)(F)F)ncc2n1C` [Compound 69, 2-(5-(3,5-Dichlorophenyl)-2-(ethylsulfonyl)pyrazolo[1,5-a]pyrimidin-3-yl)-3-methyl-6-(trifluoromethyl)-3H-imidazo[4,5-c]pyridine] it is greater than 70%.
For `CCSc1nn2cc(Br)cnc2c1-c1nc2cc(C(F)(F)F)cnc2n1C` [Compound 70, 2-(6-Bromo-2-(ethylthio)pyrazolo[1,5-a]pyrimidin-3-yl)-3-methyl-6-(trifluoromethyl)-3H-imidazo[4,5-b]pyridine], the mortality at 300 ppm was greater than 70%.
Consider `CCS(=O)(=O)c1nn2cc(-c3ccc(Cl)cc3)cnc2c1-c1nc2cc(C(F)(F)F)ncc2n1C` [Compound 74, 2-(6-(4-Chlorophenyl)-2-(ethylsulfonyl)pyrazolo[1,5-a]pyrimidin-3-yl)-3-methyl-6-(trifluoromethyl)-3H-imidazo[4,5-c]pyridine], for which the mortality at 300 ppm was greater than 70%.
`CCSc1nn2cc(-c3cc(Cl)cc(Cl)c3)cnc2c1-c1nc2cc(C(F)(F)F)ncc2n1C` [Compound 80, 2-(6-(3,5-Dichlorophenyl)-2-(ethylthio)pyrazolo[1,5-a]pyrimidin-3-yl)-3-methyl-6-(trifluoromethyl)-3H-imidazo[4,5-c]pyridine]: the mortality at 300 ppm was greater than 70%.
The figure for `CCS(=O)(=O)c1nn2cc(-c3cc(Cl)cc(Cl)c3)cnc2c1-c1nc2cc(C(F)(F)F)ncc2n1C` [Compound 81, 2-(6-(3,5-Dichlorophenyl)-2-(ethylsulfonyl)pyrazolo[1,5-a]pyrimidin-3-yl)-3-methyl-6-(trifluoromethyl)-3H-imidazo[4,5-c]pyridine] is greater than 70%; for `CCS(=O)(=O)c1nn2ccc(-c3ccc(Cl)cc3)nc2c1-c1nc2cc(C(F)(F)F)cnc2n1C` [Compound 88, 2-(5-(4-Chlorophenyl)-2-(ethylsulfonyl)pyrazolo[1,5-a]pyrimidin-3-yl)-3-methyl-6-(trifluoromethyl)-3H-imidazo[4,5-b]pyridine] it is greater than 70%.
Take `CCSc1nn2cc(-c3ccc(OC(F)(F)C(F)F)cc3)cnc2c1-c1nc2cc(C(F)(F)F)cnc2n1C` [Compound 95, 2-(2-(Ethylthio)-6-(4-(1,1,2,2-tetrafluoroethoxy)phenyl)pyrazolo[1,5-a]pyrimidin-3-yl)-3-methyl-6-(trifluoromethyl)-3H-imidazo[4,5-b]pyridine]: the mortality at 300 ppm is greater than 70%.
In the case of `CCS(=O)(=O)c1nn2cc(-c3ccc(OC(F)(F)C(F)F)cc3)cnc2c1-c1nc2cc(C(F)(F)F)cnc2n1C` [Compound 96, 2-(2-(Ethylsulfonyl)-6-(4-(1,1,2,2-tetrafluoroethoxy)phenyl)pyrazolo[1,5-a]pyrimidin-3-yl)-3-methyl-6-(trifluoromethyl)-3H-imidazo[4,5-b]pyridine], the mortality at 300 ppm is greater than 70%.
In the case of `CCS(=O)(=O)c1nn2cc(-c3ccc(OC(F)(F)F)cc3)cnc2c1-c1nc2cc(C(F)(F)F)ncc2n1C` [Compound 100, 2-(2-(Ethylsulfonyl)-6-(4-(trifluoromethoxy)phenyl)pyrazolo[1,5-a]pyrimidin-3-yl)-3-methyl-6-(trifluoromethyl)-3H-imidazo[4,5-c]pyridine], the mortality at 300 ppm is greater than 70%.
Turning to `CCS(=O)(=O)c1nn2c(-c3cccc(Cl)c3Cl)ccnc2c1-c1nc2cc(C(F)(F)F)cnc2n1C` [Compound 114, 2-(7-(2,3-Dichlorophenyl)-2-(ethylsulfonyl)pyrazolo[1,5-a]pyrimidin-3-yl)-3-methyl-6-(trifluoromethyl)-3H-imidazo[4,5-b]pyridine], the mortality at 300 ppm is greater than 70%.
Turning to `CCS(=O)(=O)c1nn2c(-c3ccccc3)ccnc2c1-c1nc2cc(C(F)(F)F)cnc2n1C` [Compound 115, 2-(2-(Ethylsulfonyl)-7-phenylpyrazolo[1,5-a]pyrimidin-3-yl)-3-methyl-6-(trifluoromethyl)-3H-imidazo[4,5-b]pyridine], the mortality at 300 ppm is greater than 70%.

As usually defined, the mortality is the share of the test organisms that died.
